From ChEMBL document CHEMBL5465560, “Selectivity Literature for EUbOPEN Chemogenomic Library” (2024)
Blank lines part the entries; values can stand above or below the molecule they belong to.

Columns and labels:
[1] = biological target: T1, Myosin-IIIb (Homo sapiens) (UniProt Q8WXR4); settings: at 10 µM
T1 sequence (whole entry): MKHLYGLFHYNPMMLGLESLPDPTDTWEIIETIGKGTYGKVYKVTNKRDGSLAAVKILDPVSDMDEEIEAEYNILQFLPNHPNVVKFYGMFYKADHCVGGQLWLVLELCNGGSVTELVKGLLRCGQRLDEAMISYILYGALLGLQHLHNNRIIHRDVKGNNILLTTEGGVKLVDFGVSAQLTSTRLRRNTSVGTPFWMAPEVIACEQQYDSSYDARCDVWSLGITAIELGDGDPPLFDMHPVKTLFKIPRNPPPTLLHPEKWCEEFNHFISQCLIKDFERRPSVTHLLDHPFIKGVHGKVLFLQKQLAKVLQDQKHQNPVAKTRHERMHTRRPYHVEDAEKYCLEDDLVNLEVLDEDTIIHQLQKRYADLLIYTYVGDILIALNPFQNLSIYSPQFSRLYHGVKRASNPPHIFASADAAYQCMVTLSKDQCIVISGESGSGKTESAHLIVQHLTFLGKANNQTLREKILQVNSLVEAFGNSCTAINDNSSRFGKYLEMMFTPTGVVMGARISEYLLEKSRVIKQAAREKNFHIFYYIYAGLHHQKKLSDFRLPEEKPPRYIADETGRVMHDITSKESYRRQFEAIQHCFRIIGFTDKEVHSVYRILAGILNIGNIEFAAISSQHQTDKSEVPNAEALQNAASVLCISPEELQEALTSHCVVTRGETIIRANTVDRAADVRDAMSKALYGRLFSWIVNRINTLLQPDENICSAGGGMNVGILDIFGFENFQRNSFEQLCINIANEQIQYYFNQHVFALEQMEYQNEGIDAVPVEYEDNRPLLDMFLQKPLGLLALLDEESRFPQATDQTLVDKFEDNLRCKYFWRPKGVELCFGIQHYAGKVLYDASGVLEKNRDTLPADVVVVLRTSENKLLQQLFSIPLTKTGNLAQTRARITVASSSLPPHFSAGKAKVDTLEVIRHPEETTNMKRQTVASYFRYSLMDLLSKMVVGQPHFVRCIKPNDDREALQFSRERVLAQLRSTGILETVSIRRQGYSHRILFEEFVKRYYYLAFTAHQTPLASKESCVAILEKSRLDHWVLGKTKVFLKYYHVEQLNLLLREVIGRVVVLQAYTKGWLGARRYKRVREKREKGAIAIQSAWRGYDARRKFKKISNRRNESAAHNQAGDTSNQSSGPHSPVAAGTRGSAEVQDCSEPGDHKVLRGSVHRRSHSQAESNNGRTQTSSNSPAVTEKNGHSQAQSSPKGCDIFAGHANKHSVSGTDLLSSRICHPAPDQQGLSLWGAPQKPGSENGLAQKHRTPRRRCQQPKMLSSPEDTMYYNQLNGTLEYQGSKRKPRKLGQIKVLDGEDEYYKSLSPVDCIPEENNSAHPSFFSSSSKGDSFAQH

[2] = biological target: T2, Serine/threonine-protein kinase DCLK2 (Homo sapiens) (UniProt Q8N568); assay: Selectivity interaction (KinomeScan (DiscoverX)) EUB0001079a DCLK2; settings: at 1 µM
T2 sequence (whole entry): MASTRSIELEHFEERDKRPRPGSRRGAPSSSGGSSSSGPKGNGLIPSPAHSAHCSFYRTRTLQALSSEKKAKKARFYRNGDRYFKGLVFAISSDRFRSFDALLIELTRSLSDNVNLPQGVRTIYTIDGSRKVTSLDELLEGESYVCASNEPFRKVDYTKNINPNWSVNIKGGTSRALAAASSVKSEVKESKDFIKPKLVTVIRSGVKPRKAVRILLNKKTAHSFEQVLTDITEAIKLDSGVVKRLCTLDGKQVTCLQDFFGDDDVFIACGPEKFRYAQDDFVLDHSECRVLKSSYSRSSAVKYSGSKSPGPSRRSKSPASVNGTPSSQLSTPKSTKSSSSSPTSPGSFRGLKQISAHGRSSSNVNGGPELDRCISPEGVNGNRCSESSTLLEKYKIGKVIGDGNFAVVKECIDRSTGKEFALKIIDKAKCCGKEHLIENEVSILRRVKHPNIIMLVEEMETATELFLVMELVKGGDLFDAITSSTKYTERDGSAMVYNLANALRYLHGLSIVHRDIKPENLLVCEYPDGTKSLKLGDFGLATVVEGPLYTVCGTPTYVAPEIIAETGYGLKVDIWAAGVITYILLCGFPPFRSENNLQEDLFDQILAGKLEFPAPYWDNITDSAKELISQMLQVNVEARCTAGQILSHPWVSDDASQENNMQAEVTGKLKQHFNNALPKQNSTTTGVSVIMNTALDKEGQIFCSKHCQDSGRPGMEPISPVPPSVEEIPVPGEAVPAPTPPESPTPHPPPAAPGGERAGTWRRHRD

[3] = biological target: T3, Cyclin-dependent kinase 11A (Homo sapiens) (UniProt Q9UQ88); assay: Selectivity interaction (ActivX KiNativ screen (ex vivo kinase selectivity in human PBMCs)) EUB0001619a CDK11A; format: cell-based; settings: PBMC, at 1 µM
T3 sequence (whole entry): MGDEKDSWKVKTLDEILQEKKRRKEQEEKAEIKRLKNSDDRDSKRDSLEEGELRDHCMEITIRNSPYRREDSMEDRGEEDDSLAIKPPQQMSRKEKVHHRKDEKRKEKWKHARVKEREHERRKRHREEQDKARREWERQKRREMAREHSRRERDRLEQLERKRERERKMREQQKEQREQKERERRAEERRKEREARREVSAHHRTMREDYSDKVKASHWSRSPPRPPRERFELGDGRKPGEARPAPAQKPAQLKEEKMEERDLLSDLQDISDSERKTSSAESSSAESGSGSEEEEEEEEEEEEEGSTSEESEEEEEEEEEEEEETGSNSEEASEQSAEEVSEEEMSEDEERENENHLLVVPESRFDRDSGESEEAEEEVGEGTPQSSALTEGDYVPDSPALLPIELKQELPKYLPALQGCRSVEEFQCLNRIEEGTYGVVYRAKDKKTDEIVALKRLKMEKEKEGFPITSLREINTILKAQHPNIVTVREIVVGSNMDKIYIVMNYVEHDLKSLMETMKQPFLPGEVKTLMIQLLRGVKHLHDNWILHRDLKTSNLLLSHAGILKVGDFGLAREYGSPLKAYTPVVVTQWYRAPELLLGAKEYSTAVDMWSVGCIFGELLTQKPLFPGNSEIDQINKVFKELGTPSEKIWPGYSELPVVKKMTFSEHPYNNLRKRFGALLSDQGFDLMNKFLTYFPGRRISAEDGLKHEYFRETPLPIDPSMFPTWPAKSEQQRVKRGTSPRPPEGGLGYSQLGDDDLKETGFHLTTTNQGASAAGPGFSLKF

% of control [1]: 100%
Structure (SMILES): CCN(CC)CCCCNc1ncc2cc(-c3cc(OC)cc(OC)c3)c(NC(=O)NC(C)(C)C)nc2n1

Structure (SMILES): Nc1cnc(N2CCc3cc(S(=O)(=O)Nc4c(F)cc(Cl)cc4F)cc(N4CCCC4=O)c32)nc1 [TP-020n]
% of control [2]: 100%

Structure (SMILES): N#Cc1cccc(-c2c[nH]c3ncnc(N4CCOCC4)c23)c1
% of inhibition [3]: 11%
